Test results: PubChem BioAssay (NCI)
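Growth conditions: 96-well plates. Treatment: test compound, 48 hours, 5 concentrations. Analysis: linear interpolation between bracketing concentrations; unreached endpoints set to highest concentration. TGI: total growth inhibition.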

Columns and labels:
Test in all cases: DTP human tumour cell line panel, 48 h
[1] = tested on: SF-539 CNS
[2] = tested on: CCRF-CEM leukemia
[3] = tested on: K-562 leukemia
[4] = tested on: T-47D breast
[5] = tested on: OVCAR-5 ovarian
[6] = tested on: BT-549 breast
[7] = tested on: OVCAR-3 ovarian
[8] = tested on: RPMI-8226 leukemia
[9] = tested on: UO-31 renal
[10] = tested on: OVCAR-8 ovarian
[11] = tested on: TK-10 renal
[12] = tested on: HCT-116 colon
[13] = tested on: UACC-257 melanoma
[14] = tested on: SNB-75 CNS
[15] = tested on: MALME-3M melanoma
[16] = tested on: SK-MEL-28 melanoma
[17] = tested on: UACC-62 melanoma
[18] = tested on: PC-3 prostate
[19] = tested on: NCI-H460 lung
[20] = tested on: DU-145 prostate
[21] = tested on: SK-MEL-5 melanoma
[22] = tested on: SF-268 CNS
[23] = tested on: SF-295 CNS
[24] = tested on: A498 renal
[25] = tested on: SW-620 colon
[26] = tested on: HL-60(TB) leukemia
[27] = tested on: MOLT-4 leukemia
[28] = tested on: EKVX NSCLC
[29] = tested on: SR leukemia
[30] = tested on: RXF 393 renal
[31] = tested on: NCI/ADR-RES ovarian
[32] = tested on: MDA-MB-435
[33] = tested on: SN12C renal
[34] = tested on: 786-0 renal
[35] = tested on: IGROV1 ovarian
[36] = tested on: HCC-2998 colon
[37] = tested on: SK-MEL-2 melanoma
[38] = tested on: HOP-62 NSCLC
[39] = tested on: A549 NSCLC
[40] = tested on: MCF7 breast
[41] = tested on: KM12 colon
[42] = tested on: CAKI-1 renal
[43] = tested on: ACHN renal
[44] = tested on: M14 melanoma
[45] = tested on: MDA-N
[46] = tested on: COLO 205 colon
[47] = tested on: SNB-19 CNS
[48] = tested on: MDA-MB-231 breast
[49] = tested on: SK-OV-3 ovarian
[50] = tested on: HT29 colon
[51] = tested on: U251 CNS
[52] = tested on: LOX IMVI melanoma
[53] = tested on: NCI-H23 lung
[54] = tested on: HCT-15 colon
[55] = tested on: NCI-H226 lung
[56] = tested on: HS 578T breast

## CN(C)c1ccc(/C=C2\CCCCCC2=O)cc1
[1]
  TGI: > 100 µM
[2]
  TGI: > 100 µM
[3]
  TGI: > 100 µM
[4]
  TGI: > 100 µM
[5]
  TGI: > 100 µM
[6]
  TGI: > 100 µM
[7]
  TGI: > 100 µM
[8]
  TGI: > 100 µM
[9]
  TGI: > 100 µM
[10]
  TGI: > 100 µM
[11]
  TGI: > 100 µM
[12]
  TGI: > 100 µM
[13]
  TGI: > 100 µM
[14]
  TGI: > 100 µM
[15]
  TGI: > 100 µM
[16]
  TGI: > 100 µM
[17]
  TGI: > 100 µM
[18]
  TGI: > 100 µM
[19]
  TGI: > 100 µM
[20]
  TGI: > 100 µM
[21]
  TGI: > 100 µM
[22]
  TGI: > 100 µM
[23]
  TGI: > 100 µM
[24]
  TGI: > 100 µM
[25]
  TGI: > 100 µM
[26]
  TGI: > 100 µM
[27]
  TGI: > 100 µM
[28]
  TGI: > 100 µM
[29]
  TGI: > 100 µM
[30]
  TGI: > 100 µM
[31]
  TGI: > 100 µM
[32]
  TGI: > 100 µM
[33]
  TGI: > 100 µM
[34]
  TGI: > 100 µM
[35]
  TGI: > 100 µM
[36]
  TGI: > 100 µM
[37]
  TGI: > 100 µM
[38]
  TGI: > 100 µM
[39]
  TGI: > 100 µM
[40]
  TGI: > 100 µM
[41]
  TGI: > 100 µM
[42]
  TGI: > 100 µM
[43]
  TGI: > 100 µM
[44]
  TGI: > 100 µM
[45]
  TGI: > 100 µM
[46]
  TGI: > 100 µM
[47]
  TGI: > 100 µM
[48]
  TGI: > 100 µM
[49]
  TGI: > 100 µM
[50]
  TGI: > 100 µM

## O=C1Cc2c([nH]c3c(Br)cccc23)-c2ccccc2N1
[51]
  TGI: > 100 µM
[1]
  TGI: > 100 µM
[2]
  TGI: 35.6 µM
[3]
  TGI: 56.5 µM
[4]
  TGI: > 100 µM
[5]
  TGI: > 100 µM
[6]
  TGI: > 100 µM
[7]
  TGI: > 100 µM
[8]
  TGI: > 100 µM
[9]
  TGI: > 100 µM
[10]
  TGI: > 100 µM
[13]
  TGI: > 100 µM
[14]
  TGI: > 100 µM
[15]
  TGI: > 100 µM
[17]
  TGI: > 100 µM
[18]
  TGI: > 100 µM
[19]
  TGI: > 100 µM
[20]
  TGI: > 100 µM
[52]
  TGI: > 100 µM
[21]
  TGI: > 100 µM
[22]
  TGI: > 100 µM
[23]
  TGI: > 100 µM
[24]
  TGI: > 100 µM
[25]
  TGI: > 100 µM
[26]
  TGI: 73.8 µM
[27]
  TGI: 43.6 µM
[28]
  TGI: > 100 µM
[29]
  TGI: 55.3 µM
[31]
  TGI: > 100 µM
[32]
  TGI: > 100 µM
[53]
  TGI: > 100 µM
[33]
  TGI: > 100 µM
[34]
  TGI: > 100 µM
[54]
  TGI: > 100 µM
[35]
  TGI: > 100 µM
[55]
  TGI: > 100 µM
[36]
  TGI: > 100 µM
[37]
  TGI: > 100 µM
[38]
  TGI: > 100 µM
[39]
  TGI: > 100 µM
[56]
  TGI: > 100 µM
[40]
  TGI: > 100 µM
[41]
  TGI: > 100 µM
[43]
  TGI: > 100 µM
[44]
  TGI: > 100 µM
[45]
  TGI: > 100 µM
[46]
  TGI: > 100 µM
[47]
  TGI: > 100 µM
[48]
  TGI: > 100 µM
[49]
  TGI: > 100 µM
[50]
  TGI: > 100 µM
